Structures can show the parent of a compound that is named as a salt. Where two headings read alike, the source gives them in different places.
Experiments:
α2A adrenoceptor = target: T1, α2A adrenoceptor (Homo sapiens, UniProt P08913); test: Agonist screening mode cAMP assay, 293-α2A cells; format: cell-based; conditions: for agonistic activity on the α2A receptor / agonistic activity α1A/2A: in words, compared with dexmedetomidine hydrochloride; for Function α1A/2A: ratio of α1A to α2A EC50
T1 construct: host or cells: 293
T1 sequence (P08913 1-465): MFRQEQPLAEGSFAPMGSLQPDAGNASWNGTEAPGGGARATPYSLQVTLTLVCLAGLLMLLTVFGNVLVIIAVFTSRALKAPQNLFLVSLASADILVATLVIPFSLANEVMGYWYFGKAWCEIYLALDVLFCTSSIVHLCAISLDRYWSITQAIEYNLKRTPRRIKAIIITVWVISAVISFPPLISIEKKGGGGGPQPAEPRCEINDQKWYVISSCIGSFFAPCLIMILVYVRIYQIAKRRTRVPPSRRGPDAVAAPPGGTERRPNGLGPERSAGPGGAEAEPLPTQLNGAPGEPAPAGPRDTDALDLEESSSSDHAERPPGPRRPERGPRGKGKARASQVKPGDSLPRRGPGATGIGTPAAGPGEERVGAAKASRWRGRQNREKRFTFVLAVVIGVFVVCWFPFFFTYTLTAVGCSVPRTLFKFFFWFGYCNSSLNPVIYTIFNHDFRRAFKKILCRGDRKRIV
Procedure: The cells were centrifuged at 1000 rpm for 5 min, and the supernatant was discarded. 3 mL of PBS was added, and the mixture was gently pipetted to be mixed well. The cells were centrifuged again at 1000 rpm for 5 min, and the supernatant was discarded. The cells were resuspended in the 1× Stimulation buffer and counted using a Countstar cell counter, and the cell density was adjusted to 4 × 10^5 cells/mL for later use. • (4) Cell addition: The cell suspension was added to assay plates at 5 µL/well (i.e., about 2000 cells/well). • (5) Compound addition: The compound diluted with the Stimulation buffer was added to the assay plates described above at 4 µL/well. • (6) Reaction and incubation: After gentle shaking, the assay plates were incubated at 37 °C for 20 min. • (7) Agonist Forskolin addition: A 10× adenylate cyclase agonist (Forskolin with a final concentration of 1 µM) solution was added at 1 µL/well. • (8) Reaction and incubation: After gentle shaking, the assay plates were incubated at 37 °C for 45 min. • (9) Detection reagent addition: cAMP-cryptate and Anti-cAMP-d2 were separately diluted according to a ratio of 1:20 with Lysis & detection buffer in the Cisbio cAMP-Gi detection kit, and the diluted cAMP-cryptate and Anti-cAMP-d2 described above were separately added to the assay plate at 5 µL/well. After shaking, the assay plates were left to stand at room temperature for 60 min. • (10) Experimental readings: The plate was read on Envision, readings from the 665 nm and 615 nm channels were taken, and the ratio of 665 nm/615 nm readings was calculated.

Male SD rats = test: Hypnotic efficacy: loss of righting reflex (LORR) in rats; format: in vivo; conditions: for ED50: Rattus norvegicus, tail vein injection over 10 s, sequential method; for induce sleep in rats: time to induce sleep, dose twice the ED50
Procedure: The sequential method was used to determine the ED50 (median effective dose) for the loss of righting reflex (LORR) by the compounds of the present disclosure in rats: Male SD rats, weighing 200-300 grams, were used. Each compound was dissolved in normal saline and administered via tail vein injection at an initial dose at a constant injection rate over 10 s (one rat per dose). […] This process was repeated, and the results were recorded in the AOT425 Statpm software until the software could calculate the ED50, at which point the experiment was terminated. The hypnotic efficacy of the compounds of the present disclosure was evaluated using ED50 with lower ED50 values indicating stronger efficacy.
Comparison of onset time and duration: Male SD rats, weighing 200-300 grams, were used. Each compound was dissolved in normal saline and administered via tail vein injection at a constant injection rate over 10 s, with 10 rats per group. […] The onset time and duration were recorded.
The onset time refers to the period from the completion of injection to when the rat is placed in a supine position, with the criterion for loss of righting reflex defined as the rat's inability to spontaneously revert to a prone position using its forelimbs and maintained for ≥10 s, which serves as an indicator of compound efficacy; the duration refers to the sustained period during which the rat remains in a state of losing righting reflex. The spontaneous recovery of the righting reflex in the rat is considered the cessation of the efficacy.

[1] = EC50, cAMP-Gi, 293-α2A cells, Forskolin 1 µM, read-out: Function α2A
[2] = loss of righting reflex, male SD rats
[3] = in words, compared with dexmedetomidine hydrochloride, rats
[4] = loss of righting reflex, male SD rats, tail vein injection, dose twice the ED50, 10 rats per group

SMILES	EC50 (α2A adrenoceptor; [1]) [nM]	agonistic activity on the α2A receptor (α2A adrenoceptor)	Function α1A/2A (α2A adrenoceptor)	EC50 (α2A adrenoceptor) [nM]	agonistic activity α1A/2A (α2A adrenoceptor)	ED50 (Male SD rats; [2]) [mg/kg]	Duration (Male SD rats; [3])	hypnotic onset time (Male SD rats; [3])	Duration (Male SD rats; [4]) [S]	Onset time (Male SD rats; [4]) [S]	induce sleep in rats (Male SD rats; rats) [min]
c1cc2c(c(Cc3c[nH]cn3)c1)SCCC2 [Compound 1, 4-[1-(Thiochroman-8-yl)methyl]-1H-imidazole]	1.28	comparable	2.5								
CC(c1c[nH]cn1)c1cccc2c1C=CC2 (stereo not shown) [Compound 8, 4-[1-(1H-Inden-4-yl)ethyl]-1H-imidazole]		superior	23.9	0.91	superior	0.0213	significantly shorter	comparable to or slightly longer	635.80±697.73	161.70±101.69	≤ 5
Cc1cccc([C@H](C)c2cnc[nH]2)c1C [Dexmedetomidine hydrochloride, reference compound]						0.01			3275.10±796.79	77.80±28.56	
C[C@H](c1c[nH]cn1)c1cccc2c1CCC2 [Compound 31-b, (S)-4-[1-(2,3-dihydro-1H-inden-4-yl)ethyl]-1H-imidazole]		comparable	1.8	4.46	comparable	0.0268	significantly shorter	comparable to or slightly longer	1147.78±656.35	100.44±49.16	≤ 5
CC(c1c[nH]cn1)c1cccc2c1C=CC2(C)C (stereo not shown) [Compound 17, 4-[1-(1,1-Dimethyl-1H-inden-4-yl)ethyl]-1H-imidazole]			3.2	32	comparable	0.276	significantly shorter	comparable to or slightly longer	1602.50±681.51	101.80±154.86	≤ 5
C[C@H](c1c[nH]cn1)c1cc(F)cc2c1C=CC2 [Compound 11-b, 4-[(1S)-1-(6-fluoro-1H-inden-4-yl)ethyl]-1H-imidazole]		comparable	4.0	9.18	comparable	0.0256	significantly shorter	significantly shorter	666.00±376.66	45.20±7.38	
CC1Cc2cccc(C(C)c3c[nH]cn3)c2O1 (stereo not shown) [Compound 32, 4-[1-(2-Methyl-2,3-dihydrobenzofuran-7-yl)ethyl]-1H-imidazole]			0.0	353							
CC(c1c[nH]cn1)c1cccc2c1SCCC2 (stereo not shown) [Compound 2, 4-(1-[Thiochroman-8-yl)ethyl]-1H-imidazole]	0.53	superior	10.1		comparable						
CC(c1c[nH]cn1)c1cccc2c1OCC2 (stereo not shown) [Compound 10, 4-[1-(2,3-Dihydrobenzofuran-7-yl)ethyl]-1H-imidazole]		comparable	5.2	4.63	comparable	0.0088	significantly shorter	comparable to or slightly longer	508.10±572.65	219.90±93.88	≤ 5
CC(c1c[nH]cn1)c1cccc2c1CCCC2 (stereo not shown) [Compound 4, 4-(1-(5,6,7,8-Tetrahydronaphthalen-1-yl)ethyl)-1H-imidazole]		comparable	7.0	3.57	comparable						
CC(c1c[nH]cn1)c1cccc2c1CC2 (stereo not shown) [Compound 3, 4-(1-(Bicyclo[4.2.0]octa-1(6),2,4-trien-2-yl)ethyl)-1H-imidazole]		comparable	18.3	3.12	superior						
C[C@H](c1c[nH]cn1)c1cc(F)cc2c1C(=O)CC2 [Compound 38-b, (S)-7-(1-(1H-imidazol-4-yl)ethyl)-5-fluoro-2,3-dihydro-1H-inden-1-one]	13.2		0.7			0.032	significantly shorter	comparable to or slightly longer	228.22±158.93	102.44±52.34	≤ 5

Reference: patent publication EP4729516A1, “S[…] DERIVATIVE, INTERMEDIATE, PREPARATION METHOD THEREFOR AND USE THEREOF” (Jiangsu NHWA Pharmaceutical Co., Ltd, priority 2023, dated 2024)
